The nature of this series: gradient 5% acetonitrile 3 min, to 50% in 2 min, to 85% in 15 min, held 3 min, 100 µL/min. To be noted: column: Zorbax Extend-C18 2.1 x 50 mm; eluents: water / acetonitrile, 0.1% formic acid. A digest of the protocol: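 Standards, all pure, were combined into mixtures of ~100 molecules and run at 100 μL/min on a Zorbax Extend-C18 column (2.1 × 50 mm, 1.8 μm) with water and acetonitrile, each containing 0.1% formic acid. A coupled quadrupole time-of-flight mass spectrometer operated in positive and negative ionization mode. Retention time values come from computationally picked adduct peaks, each inspected manually.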
`O=C(Cn1nc(N2CCOCC2)c2ccccc2c1=O)Nc1ccccc1C(F)(F)F` showed an RP-LC retention time of 804 s. The result for `CC(=O)N1CCc2cc(CNS(=O)(=O)c3ccc(Br)cc3)ccc21` reads 830 s. As to `CC1CN2C=NC(N3CCN(S(=O)(=O)Cc4cccc(Cl)c4)CC3)=CC2=N1` (stereo unspecified), the RP-LC retention time is 627 s. The same measure for `O=C(c1ccc2c(c1)OCO2)N1CCC2(CC1)N(c1ccccc1)C(=O)CS2(=O)=O`: 685 s; for `Nc1nc(N2CCCC2)ncc1C(=O)NCc1ccccc1`: 615 s. The same measure for `Cn1cc(C(=O)N2CCCC2Cc2noc(C3CCCC3)n2)cn1` (stereo unspecified): 750 s; for `Clc1cccc(CN2CCCN(c3ncccc3-c3nc(C4CC4)no3)CC2)c1`: 723 s; for `O=S(=O)(NC1CCCCCC1)c1ccc(-c2nnc(C3CCCC3)o2)o1`: 1080 s. The compound `CCC(C)NC(=O)N1CCC2(CC1)Nc1cc(F)ccc1-n1cccc12` (stereo unspecified) displayed an RP-LC retention time of 954 s.

For the compound `CN(Cc1ccccc1)Cc1cc(=O)n2cc(Cl)ccc2n1`, the RP-LC retention time was found to be 608 s. The same measure for `O=c1c(NCCc2ccc(Cl)cc2)nc2ccncc2n1Cc1ccccc1`: 766 s; for `Cc1cc(N2C=NS(=O)(=O)c3cccnc32)ccc1F`: 807 s; for `O=C(NCc1ccc(N2CCCC2)nc1)c1ccc(Cl)s1`: 634 s.

In turn, `O=C(c1ccc(Cl)c(Cl)c1)N1CCN(Cc2nncn2C2CCCCC2)CC1` yielded an RP-LC retention time of 708 s. `O=C(CN1CC=C(c2cnn(-c3ccc(F)cc3)c2)CC1)N1CCCCC1` had an RP-LC retention time of 661 s. `O=C(Cn1ccc2c(SCc3ccccc3)nccc21)N1CCN(c2ccccc2)CC1` had an RP-LC retention time of 768 s. For `COC(=O)c1cc(-c2cccc(N)c2)nc2ccccc12`, the RP-LC retention time is 749 s. The same measure for `COC(=O)c1cc2n(n1)CC(C)(C(=O)NC1CCCC1)N(c1ccc(F)cc1C)C2=O` (stereo unspecified): 845 s; for `Cc1ccccc1CNC(=O)C1(C)CCN(S(=O)(=O)c2ccc(Br)cc2)CC1`: 1030 s; for `CCCCOc1ccc(-c2ccc(=O)n(Cc3nc(-c4ccccc4Br)no3)n2)cc1`: 1260 s. With `CCC(C)NC(=O)C1CCN(S(C)(=O)=O)c2cc(Cl)ccc2O1` (stereo unspecified), the RP-LC retention time was 862 s. The result for `O=C(C1CCCN(c2ccc(-c3ccccc3)nn2)C1)N1CCN(c2ccccn2)CC1` (stereo unspecified) reads 576 s; that for `Cc1cccc(NC(=O)CN2C(=O)NC3(CCCCC3)C2=O)c1C`, 765 s; that for `Cc1nn(C)c(C)c1CCC(=O)NCCn1c(C)cnc1C1CCC1`, 547 s.

Compound `Cc1nn(-c2ccc(Cl)cc2)c(C)c1S(=O)(=O)N1CCC(C(=O)N2CCCC2)CC1` registered an RP-LC retention time of 868 s. Turning to `Cc1cc(OCC(=O)N[C@@H](C)C(=O)O)c2c3c(c(=O)oc2c1)CCCC3`, the RP-LC retention time is 746 s. The same measure for `O=C(O)c1ccc2c(c1)N(C(=O)c1ccc(F)cc1)CC2`: 748 s; for `COc1ccc(CCC(=O)NCc2cccnc2OC)cc1`: 749 s; for `Cc1ccc2[nH]c(=O)c(CCC(=O)NCc3cccnc3)cc2c1`: 584 s. Consider `CC(C)CCNC(=O)c1ccc2nc(CCc3ccc(NC(=O)C(C)C)cc3)[nH]c2c1`, for which the RP-LC retention time is 676 s. With `O=C(CCCS(=O)(=O)c1ccc(F)cc1)Nc1nc2c(s1)COc1ccccc1-2`, the RP-LC retention time is 872 s. On to `CC(NC(=O)c1ccco1)c1nc(-c2ccc3ncn(C)c3c2)no1` (stereo unspecified), for which the RP-LC retention time turned out to be 599 s. For the compound `COc1ccc(-c2cn3cccnc3n2)cc1NC(=O)c1ccc(Cl)cc1`, the RP-LC retention time is 743 s.

In the case of `Cc1cccc(N2CCN(S(=O)(=O)c3ccc4c(c3)CCCC(=O)N4)CC2)c1C`, the RP-LC retention time is 983 s. In turn, `COc1ccc(NC(=O)Cn2cnc3nc4c(cc3c2=O)CCCC4)c(OC)c1` had an RP-LC retention time of 709 s. As for `Cc1cccc(-c2nnc(-c3cccc(S(=O)(=O)N4CCCCC4)c3)o2)c1`, the RP-LC retention time was 1140 s. The same measure for `CC1CCC(NC(=O)C2CCN(C(=O)c3ncn4c3COC(c3ccc(F)cc3)C4)CC2)CC1` (stereo unspecified): 826 s; for `COc1ccc(Cc2nc3nccc(-c4ccccc4)n3n2)cc1`: 872 s; for `CCCOc1ccc(-c2csc(NC(=O)CN3C(=O)CCC3=O)n2)cc1`: 816 s. `CCn1nccc1C(=O)Nc1cc(-c2cc3c(OC)cccc3n2CC)[nH]n1` registered an RP-LC retention time of 879 s. The result for `O=C(Cc1csc(-n2cccc2)n1)Nc1ccc(-n2cnnn2)cc1` reads 731 s; that for `O=C(NCc1cccs1)c1c(O)c2cccnc2n(Cc2ccccc2)c1=O`, 1310 s; that for `O=C1COc2ccc(S(=O)(=O)N3CCC(C(=O)Nc4cccc(Br)c4)CC3)cc2N1`, 859 s. The result for `Cc1nc2scc(C)n2c(=O)c1NC(=O)CCSc1ccccc1` reads 675 s; that for `CCN1c2ccc(C)cc2C(=O)NC12CCN(C(=O)Cc1ccc(Cl)cc1)CC2`, 919 s. Turning to `CC(C)Oc1ccc(CN2CCC3(CC2)CN(C)CC3c2nnc(C(C)C)o2)cc1` (stereo unspecified), the RP-LC retention time was found to be 577 s. The compound `COc1ccc(-c2cc(N3CCN(C(=O)NCC(C)C)CC3)ncn2)cc1OC` showed an RP-LC retention time of 623 s.

`Cc1cc(-c2nnc(-c3ccc(F)cc3)o2)c(C)n1CC(=O)Nc1ccc(F)c(F)c1` displayed an RP-LC retention time of 1040 s. `COc1ccc(N2C=C(C(=O)N3CCOCC3)S(=O)(=O)c3ccc(Cl)cc32)cc1`: the RP-LC retention time came to 770 s. For the compound `Cc1nc(-c2csc(S(=O)(=O)N3CCCC(C(=O)N4CCCCCC4)C3)c2)no1` (stereo unspecified), the RP-LC retention time was 902 s. `CC(C)COc1cc(=O)n2c(c1C(=O)NCCCn1cccn1)CCCCC2` showed an RP-LC retention time of 659 s. The same measure for `COCCn1c(C)cc(O)c(C(c2ccc(SC)cc2)N2CCC(C)CC2)c1=O` (stereo unspecified): 1050 s; for `CCC1CN(C(=O)Nc2ccc(OC)cc2)c2ccccc2O1` (stereo unspecified): 968 s; for `COc1ccccc1N1CCN(CC(O)c2ccc3c(c2)OCO3)CC1` (stereo unspecified): 631 s. The result for `O=C(NCc1ccc(F)cc1F)C1CCN(c2ccc(SCc3ccccc3)nn2)CC1` reads 646 s; that for `CCCc1cc(N2CCN(C(=O)c3ccsc3)CC2)nc2nnc(CC)n12`, 624 s; that for `Cc1ccc(NC(=O)Cn2nc3nc(N4CCCC(C)C4)ccn3c2=O)c(C)c1` (stereo unspecified), 808 s.

On to `Cc1ccccc1OCC(=O)N1CCc2cc(-c3ccno3)ccc21`, for which the RP-LC retention time came out at 971 s. For `O=C(CC1CCN(C(=O)c2cc(F)ccc2F)C1)NC1CC1` (stereo unspecified), the RP-LC retention time was found to be 630 s. `O=C(c1ccco1)N1CCN(C(=O)c2nnn3c2COC(c2ccccc2)C3)CC1` (stereo unspecified) gave an RP-LC retention time of 762 s. Take `Cc1nnsc1C(=O)NCc1c(F)cccc1Cl`: the RP-LC retention time was found to be 861 s.

In the case of `Ic1ccccc1CNC1C2CCN(CC2)C1C(c1ccccc1)c1ccccc1` (stereo unspecified), the RP-LC retention time was determined as 982 s.

In turn, `CCOC(=O)c1ccc(Nc2c(-c3ccc(Cl)cc3)nc3cnccn23)cc1` displayed an RP-LC retention time of 964 s. As to `CC(C)c1ccc(S(=O)(=O)N2CCCC2c2nc(-c3ccccc3)no2)cc1` (stereo unspecified), the RP-LC retention time amounted to 1250 s. The result for `O=S(=O)(Nc1ccc(Cn2cncn2)cc1)c1ccc(F)cc1` reads 701 s; that for `C=CCn1nnc(NCc2ccc(-c3cccc(Cl)c3C)o2)n1`, 1090 s.

`CC(NC(=O)c1cc(-c2ccc(F)cc2)cn1C)c1ccccn1` (stereo unspecified) registered an RP-LC retention time of 722 s.

`O=S(=O)(c1ccccc1)c1nnn2c1nc(N1CCN(c3ccccn3)CC1)c1ccccc12` displayed an RP-LC retention time of 677 s. The result for `CN(C)CCNc1oc(-c2ccc(COc3ccc(Cl)cc3)o2)nc1C#N` reads 988 s; that for `CCOC(=O)C1CCN(c2cc3c(cc2NC(=O)NC)n(C)c(=O)n3C)CC1`, 633 s.

`c1ccc(-c2ccc3c(c2)NC(C2Nc4cc(-c5ccccc5)ccc4O2)O3)cc1` (stereo unspecified) came in with an RP-LC retention time of 1240 s.

As for `CC(C)N1C(=O)c2cccnc2Sc2cc(NC(=O)Cc3ccccc3F)ccc21`, the RP-LC retention time was 858 s. The result for `COCc1cc2nn(CC(=O)Nc3ccc(F)cc3C)c(=O)n2c(-c2ccccc2)n1` reads 826 s.

For the compound `COc1ccc(-c2nc(-c3cn(Cc4ccccc4)nn3)no2)cc1OC`, the RP-LC retention time amounted to 892 s.

For `CCOC(=O)Cn1cccc1-c1nc(-c2ccncc2)no1`, the RP-LC retention time amounted to 844 s. `CCc1ccc(C(=O)NC2CCN(c3ccccc3)C2=O)cc1` (stereo unspecified) showed an RP-LC retention time of 811 s. The result for `Cc1nc(-c2ccc3c(c2)CCN3C(=O)c2cccs2)cs1` reads 953 s; that for `O=C(c1ccsc1)N1CCN(c2ccccn2)CC1`, 521 s; that for `Cc1ccc(C(C)NC(=O)C2CCN(c3cnc4nccnc4c3)CC2)c(C)c1` (stereo unspecified), 741 s. With `Cc1ccc(Nc2nc(-c3cc(C)ccc3C)cs2)nc1`, the RP-LC retention time came out at 902 s. `CCCNC(=O)Nc1cc2c(cc1N1CCC(C(=O)OCC)CC1)n(C)c(=O)n2C` yielded an RP-LC retention time of 716 s.

For the origin of these results see the METLIN SMRT retention time set (Domingo-Almenara et al. 2019).
